Source: ChEMBL document CHEMBL1240494, “Radiosynthesis and in vivo evaluation of [(11)C]MC80 for P-glycoprotein imaging” (Bioorg Med Chem, 2010)

Columns and labels:
[1] = system: Brain; assay: Biodistribution in FVB mouse brain at 4.5 MBq, iv after 1 min postinjection; format: ADME, organism-based; details: in vivo
[2] = Biodistribution in FVB mouse small intestine at 4.5 MBq, iv after 1 min postinjection; format: ADME, organism-based; details: in vivo
[3] = system: Pancreas; assay: Biodistribution in FVB mouse pancreas at 4.5 MBq, iv after 60 mins postinjection pretreated with cyclosporin A; format: ADME, organism-based; details: in vivo, 1 h
[4] = Biodistribution in FVB mouse large intestine at 4.5 MBq, iv after 90 mins postinjection; format: ADME, organism-based; details: in vivo, 1.5 h
[5] = Biodistribution in FVB mouse large intestine at 4.5 MBq, iv after 1 min postinjection; format: ADME, organism-based; details: in vivo
[6] = system: Spleen; assay: Biodistribution in FVB mouse spleen at 4.5 MBq, iv after 60 mins postinjection pretreated with cyclosporin A; format: ADME, organism-based; details: in vivo, 1 h
[7] = Ratio of drug uptake in brain to blood in FVB mouse at 18.5 MBq, iv after 1 min postinjection pretreated with cyclosporin A; format: ADME, organism-based
[8] = system: Heart; assay: Biodistribution in mdr1a deficient mouse heart at 4.5 MBq, iv after 60 mins postinjection; format: ADME, organism-based; details: in vivo, 1 h
[9] = Ratio of drug uptake in brain to blood in FVB mouse at 18.5 MBq, iv after 30 mins postinjection pretreated with cyclosporin A; format: ADME, organism-based; details: 0.5 h
[10] = system: Brain; assay: Biodistribution in FVB mouse brain at 4.5 MBq, iv after 90 mins postinjection; format: ADME, organism-based; details: in vivo, 1.5 h
[11] = system: Liver; assay: Biodistribution in FVB mouse liver at 4.5 MBq, iv after 60 mins postinjection pretreated with cyclosporin A; format: ADME, organism-based; details: in vivo, 1 h
[12] = system: Kidney; assay: Biodistribution in mdr1a deficient mouse kidney at 4.5 MBq, iv after 60 mins postinjection; format: ADME, organism-based; details: in vivo, 1 h
[13] = Ratio of drug uptake in testes to blood in FVB mouse at 18.5 MBq, iv after 30 mins postinjection; format: ADME, organism-based; details: in vivo, 0.5 h
[14] = system: Brain; assay: Biodistribution in mdr1a deficient mouse brain at 4.5 MBq, iv after 60 mins postinjection; format: ADME, organism-based; details: in vivo, 1 h
[15] = Ratio of drug uptake in brain to blood in FVB mouse at 18.5 MBq, iv after 30 mins postinjection; format: ADME, organism-based; details: 0.5 h
[16] = Partition coefficient, log D of the compound; format: physicochemical; details: octanol/water
[17] = system: Blood; assay: Biodistribution in FVB mouse blood at 4.5 MBq, iv after 1 min postinjection; format: ADME, organism-based; details: in vivo
[18] = system: Lung; assay: Biodistribution in mdr1a deficient mouse lung at 4.5 MBq, iv after 1 min postinjection; format: ADME, organism-based; details: in vivo
[19] = system: Kidney; assay: Biodistribution in FVB mouse kidney at 4.5 MBq, iv after 60 mins postinjection pretreated with cyclosporin A; format: ADME, organism-based; details: in vivo, 1 h
[20] = system: Liver; assay: Biodistribution in FVB mouse liver at 4.5 MBq, iv; format: ADME, organism-based; details: in vivo
[21] = Biodistribution in FVB mouse small intestine at 4.5 MBq, iv after 90 mins postinjection; format: ADME, organism-based; details: in vivo, 1.5 h
[22] = Ratio of drug uptake in brain to blood in FVB mouse at 18.5 MBq, iv after 90 mins postinjection; format: ADME, organism-based; details: 1.5 h
[23] = system: Heart; assay: Biodistribution in FVB mouse heart at 4.5 MBq, iv after 1 min postinjection; format: ADME, organism-based; details: in vivo
[24] = system: Lung; assay: Biodistribution in FVB mouse lung at 4.5 MBq, iv after 1 min postinjection; format: ADME, organism-based; details: in vivo
[25] = Biodistribution in FVB mouse testes at 4.5 MBq, iv after 60 mins postinjection pretreated with cyclosporin A; format: ADME, organism-based, Testis; details: in vivo, 1 h
[26] = system: Liver; assay: Biodistribution in mdr1a deficient mouse liver at 4.5 MBq, iv after 60 mins postinjection; format: ADME, organism-based; details: in vivo, 1 h

Drug uptake [1]: 7.66 % ID/g | Drug uptake [2]: 3.89 % ID/g | Drug uptake [3]: 6.85 % ID/g | Drug uptake [4]: 2.18 % ID/g | Drug uptake [5]: 1.83 % ID/g | Drug uptake [6]: 1.52 % ID/g | Ratio [7]: 2.91 | Drug uptake [8]: 10.69 % ID/g | Ratio [9]: 1.5 | Drug uptake [10]: 0.9 % ID/g | Drug uptake [11]: 4.86 % ID/g | Drug uptake [12]: 2.46 % ID/g | Ratio [13]: 3.04 | Drug uptake [14]: 1.09 % ID/g | Ratio [15]: 2.17 | logD [16]: 1.96 | Drug uptake [17]: 2.56 % ID/g | Drug uptake [18]: 31.35 % ID/g | Drug uptake [19]: 2.46 % ID/g | Drug uptake [20]: 8.71 % ID/g | Drug uptake [21]: 11.78 % ID/g | Ratio [22]: 1.05 | Drug uptake [23]: 10.69 % ID/g | Drug uptake [24]: 31.35 % ID/g | Drug uptake [25]: 2.56 % ID/g | Drug uptake [26]: 4.86 % ID/g
SMILES: COc1cc2c(cc1OC)CN(Cc1ccc3cc(O[11CH3])ccc3c1)CC2
